According to PMC11079024, “Identification of a family of species-selective complex I inhibitors as potential anthelmintics” (Nature Communications, 2024):

Each compound was assayed on ben-1 mutant (ECA882) C. elegans (assay: microbe, parasite or virus in culture). Conditions: Caenorhabditis elegans, read-out: C. elegans (ben-1) Development & Viability Assay LC50.
Outline: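 Development and viability scored from single well images as total worm pixels divided by the matching DMSO control value, mean of ≥3 replicates. Worms added as synchronized L1s to HB101 suspension in liquid NGM with compound (1% DMSO v/v), grown 6 days at 20 °C with shaking.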

**Q.** With Clc1ccccc1OCCCCn1cnc2ccccc21 [Compound 7925804] as the compound, how does the LC50 read?
**A.** The LC50 was 49.2 µM.

**Q.** How did the LC50 turn out when Cc1ccc(Cn2c(C)nc3ccccc32)cc1 [Compound 5651984] was run?
**A.** The LC50 was 108 µM.

**Q.** Clc1ccc(SCCCCn2cnc3ccccc32)cc1 [Compound 7925515] was tested. Which LC50 did it give?
**A.** Its LC50 is 40.8 µM.

Same assay, conditions: Caenorhabditis elegans, read-out: C. elegans ben-1(e1880) development/viability

**Q.** Clc1ccccc1OCCCCn1cnc2ccccc21 [Compound 7925804] was tested. Which viability at 1 µM did it give?
**A.** The viability at 1 µM was 91.8%.

**Q.** And the viability at 2 µM?
**A.** The viability at 2 µM was 87.2%.

**Q.** And the viability at 3.9 µM?
**A.** Its viability at 3.9 µM is 83.7%.

**Q.** And the viability at 15.6 µM?
**A.** The viability at 15.6 µM was 79%.

**Q.** And the viability at 31.3 µM?
**A.** The viability at 31.3 µM was 79.6%.

**Q.** What about the viability at 62.5 µM of the same compound?
**A.** The viability at 62.5 µM was 18.3%.

**Q.** And the viability at 125 µM?
**A.** Its viability at 125 µM is 6.8%.

**Q.** What about the viability at 250 µM of the same compound?
**A.** Its viability at 250 µM is 4.1%.

**Q.** What about the viability at 500 µM of the same compound?
**A.** The viability at 500 µM was 3.2%.

**Q.** What about the viability at 1000 µM of the same compound?
**A.** The viability at 1000 µM was 3.8%.

**Q.** How did the viability at 1 µM turn out when Clc1ccc(SCCCCn2cnc3ccccc32)cc1 [Compound 7925515] was run?
**A.** Its viability at 1 µM is 92.2%.

**Q.** What about the viability at 2 µM of the same compound?
**A.** The viability at 2 µM was 97%.

**Q.** What about the viability at 3.9 µM of the same compound?
**A.** Its viability at 3.9 µM is 94.8%.

**Q.** What about the viability at 15.6 µM of the same compound?
**A.** Its viability at 15.6 µM is 84.7%.

**Q.** What about the viability at 31.3 µM of the same compound?
**A.** Its viability at 31.3 µM is 65.4%.

**Q.** And the viability at 62.5 µM?
**A.** The viability at 62.5 µM was 25%.

**Q.** What about the viability at 125 µM of the same compound?
**A.** Its viability at 125 µM is 5%.

**Q.** And the viability at 250 µM?
**A.** Its viability at 250 µM is 3.7%.

**Q.** And the viability at 500 µM?
**A.** The viability at 500 µM was 3.1%.

**Q.** What about the viability at 1000 µM of the same compound?
**A.** The viability at 1000 µM was 1%.

Same assay, conditions: Caenorhabditis elegans, read-out: C. elegans ben-1 log10 LC50 (converted)

**Q.** For Clc1ccccc1OCCCCn1cnc2ccccc21 [Compound 7925804], which LC50 is on record?
**A.** Its LC50 is 49.2 µM.

**Q.** Which LC50 does the source give for Cc1ccc(Cn2c(C)nc3ccccc32)cc1 [Compound 5651984] here?
**A.** Its LC50 is 108 µM.

**Q.** With Clc1ccc(SCCCCn2cnc3ccccc32)cc1 [Compound 7925515] as the compound, how does the LC50 read?
**A.** The LC50 was 40.8 µM.

These compounds were tested on L1 wild-type C. elegans (assay: microbe, parasite or virus in culture). Conditions: Caenorhabditis elegans, read-out: C. elegans KCN Survival Assay LC50, estimated from fitted dose-response curves; mean of at least two biological replicates.

**Q.** How did the LC50 turn out when Clc1ccccc1OCCCCn1cnc2ccccc21 [Compound 7925804] was run?
**A.** Its LC50 is 6.97 µM.

**Q.** With Cc1ccc(Cn2c(C)nc3ccccc32)cc1 [Compound 5651984] as the compound, how does the LC50 read?
**A.** Its LC50 is 7.24 µM.

**Q.** For Clc1ccc(SCCCCn2cnc3ccccc32)cc1 [Compound 7925515], which LC50 is on record?
**A.** The LC50 was 6.74 µM.

The compounds below were run against B. taurus (heart) complex I (Bos taurus, UniProt P03887+P17694+P42026) (assay: biochemical). Conditions: B. taurus heart mitochondria; estimated from fitted dose-response curves; read-out: B. taurus Complex I IC50.
Sequence of B. taurus (heart) complex I (P03887 whole entry): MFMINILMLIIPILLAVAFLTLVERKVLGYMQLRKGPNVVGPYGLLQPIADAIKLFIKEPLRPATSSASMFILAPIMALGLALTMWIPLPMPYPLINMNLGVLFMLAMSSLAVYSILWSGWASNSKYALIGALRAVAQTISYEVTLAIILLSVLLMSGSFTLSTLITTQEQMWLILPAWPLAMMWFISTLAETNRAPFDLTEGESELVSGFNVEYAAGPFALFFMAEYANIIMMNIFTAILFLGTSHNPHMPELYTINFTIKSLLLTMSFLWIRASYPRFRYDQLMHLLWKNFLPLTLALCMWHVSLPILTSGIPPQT
Sequence of B. taurus (heart) complex I (P17694 34-463): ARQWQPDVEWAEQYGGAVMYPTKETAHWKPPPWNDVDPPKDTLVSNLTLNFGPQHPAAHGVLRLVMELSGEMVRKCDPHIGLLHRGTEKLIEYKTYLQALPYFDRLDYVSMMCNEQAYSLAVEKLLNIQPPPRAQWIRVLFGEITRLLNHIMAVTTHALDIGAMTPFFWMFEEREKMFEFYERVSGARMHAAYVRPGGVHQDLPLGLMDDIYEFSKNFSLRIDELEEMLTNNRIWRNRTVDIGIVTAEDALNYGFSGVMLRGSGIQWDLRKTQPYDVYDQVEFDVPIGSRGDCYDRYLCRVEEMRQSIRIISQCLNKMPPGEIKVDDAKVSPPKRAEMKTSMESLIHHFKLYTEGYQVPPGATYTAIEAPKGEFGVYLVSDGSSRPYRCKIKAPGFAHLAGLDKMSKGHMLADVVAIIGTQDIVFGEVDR
Sequence of B. taurus (heart) complex I (P42026 38-216): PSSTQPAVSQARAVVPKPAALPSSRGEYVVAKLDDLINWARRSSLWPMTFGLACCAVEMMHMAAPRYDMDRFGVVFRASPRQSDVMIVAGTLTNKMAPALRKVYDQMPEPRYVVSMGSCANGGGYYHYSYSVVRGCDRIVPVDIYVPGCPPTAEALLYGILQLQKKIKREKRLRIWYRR
Type: biochemical
Outline: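 Complex I activity followed as DCIP reduction (600 nm, 30 s reads, 15 min) with 80 μM NADH and 60 μM decylubiquinone in 25 mM KPi pH 7.5 containing 2 μM antimycin A and 2 mM KCN. Freeze-thawed mouse or bovine heart mitochondria at 0.2 mg/mL; initial-rate percent of solvent control, single-point 100 μM or dose-response.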

**Q.** Which IC50 does the source give for Clc1ccccc1OCCCCn1cnc2ccccc21 [Compound 7925804] here?
**A.** The IC50 was 1.35 µM.

**Q.** How did the IC50 turn out when Cc1ccc(Cn2c(C)nc3ccccc32)cc1 [Compound 5651984] was run?
**A.** Its IC50 is 0.99 µM.

**Q.** Which IC50 does the source give for Clc1ccc(SCCCCn2cnc3ccccc32)cc1 [Compound 7925515] here?
**A.** Its IC50 is 8.02 µM.

Same assay, conditions: Dose 0.0001 µM; read-out: B. taurus mitochondrial complex I activity

**Q.** Clc1ccccc1OCCCCn1cnc2ccccc21 [Compound 7925804] was tested. Which activity at 0.0001 µM did it give?
**A.** Its activity at 0.0001 µM is 106%.

**Q.** Clc1ccc(SCCCCn2cnc3ccccc32)cc1 [Compound 7925515] was tested. Which activity at 0.0001 µM did it give?
**A.** Its activity at 0.0001 µM is 102%.

Same assay, conditions: Dose 0.0005 µM; read-out: B. taurus mitochondrial complex I activity

**Q.** How did the activity at 0.0005 µM turn out when Clc1ccccc1OCCCCn1cnc2ccccc21 [Compound 7925804] was run?
**A.** The activity at 0.0005 µM was 116%.

**Q.** Which activity at 0.0005 µM does the source give for Clc1ccc(SCCCCn2cnc3ccccc32)cc1 [Compound 7925515] here?
**A.** Its activity at 0.0005 µM is 97.1%.

Same assay, conditions: Dose 0.001 µM; read-out: B. taurus mitochondrial complex I activity

**Q.** How did the activity at 0.001 µM turn out when Clc1ccccc1OCCCCn1cnc2ccccc21 [Compound 7925804] was run?
**A.** Its activity at 0.001 µM is 117%.

**Q.** Clc1ccc(SCCCCn2cnc3ccccc32)cc1 [Compound 7925515] was tested. Which activity at 0.001 µM did it give?
**A.** Its activity at 0.001 µM is 96.1%.

Same assay, conditions: Dose 0.0025 µM; read-out: B. taurus mitochondrial complex I activity

**Q.** For Clc1ccccc1OCCCCn1cnc2ccccc21 [Compound 7925804], which activity at 0.0025 µM is on record?
**A.** Its activity at 0.0025 µM is 118%.

**Q.** How did the activity at 0.0025 µM turn out when Clc1ccc(SCCCCn2cnc3ccccc32)cc1 [Compound 7925515] was run?
**A.** Its activity at 0.0025 µM is 95.6%.

Same assay, conditions: Dose 0.005 µM; read-out: B. taurus mitochondrial complex I activity

**Q.** Clc1ccccc1OCCCCn1cnc2ccccc21 [Compound 7925804] was tested. Which activity at 0.005 µM did it give?
**A.** The activity at 0.005 µM was 118%.

**Q.** How did the activity at 0.005 µM turn out when Clc1ccc(SCCCCn2cnc3ccccc32)cc1 [Compound 7925515] was run?
**A.** The activity at 0.005 µM was 88.9%.

Same assay, conditions: Dose 0.013 µM; read-out: B. taurus mitochondrial complex I activity

**Q.** Which activity at 0.013 µM does the source give for Clc1ccccc1OCCCCn1cnc2ccccc21 [Compound 7925804] here?
**A.** Its activity at 0.013 µM is 117%.

**Q.** Which activity at 0.013 µM does the source give for Clc1ccc(SCCCCn2cnc3ccccc32)cc1 [Compound 7925515] here?
**A.** The activity at 0.013 µM was 95.1%.

Same assay, conditions: Dose 0.025 µM; read-out: B. taurus mitochondrial complex I activity

**Q.** Which activity at 0.025 µM does the source give for Clc1ccccc1OCCCCn1cnc2ccccc21 [Compound 7925804] here?
**A.** The activity at 0.025 µM was 116%.

**Q.** How did the activity at 0.025 µM turn out when Clc1ccc(SCCCCn2cnc3ccccc32)cc1 [Compound 7925515] was run?
**A.** The activity at 0.025 µM was 90.6%.

Same assay, conditions: Dose 0.063 µM; read-out: B. taurus mitochondrial complex I activity

**Q.** With Clc1ccccc1OCCCCn1cnc2ccccc21 [Compound 7925804] as the compound, how does the activity at 0.063 µM read?
**A.** Its activity at 0.063 µM is 111%.

**Q.** With Clc1ccc(SCCCCn2cnc3ccccc32)cc1 [Compound 7925515] as the compound, how does the activity at 0.063 µM read?
**A.** Its activity at 0.063 µM is 95.8%.

Same assay, conditions: Dose 0.125 µM; read-out: B. taurus mitochondrial complex I activity

**Q.** Which activity at 0.125 µM does the source give for Clc1ccccc1OCCCCn1cnc2ccccc21 [Compound 7925804] here?
**A.** The activity at 0.125 µM was 99.3%.

**Q.** How did the activity at 0.125 µM turn out when Clc1ccc(SCCCCn2cnc3ccccc32)cc1 [Compound 7925515] was run?
**A.** Its activity at 0.125 µM is 98.1%.

Same assay, conditions: Dose 0.313 µM; read-out: B. taurus mitochondrial complex I activity

**Q.** Which activity at 0.313 µM does the source give for Clc1ccccc1OCCCCn1cnc2ccccc21 [Compound 7925804] here?
**A.** The activity at 0.313 µM was 90.5%.

**Q.** Clc1ccc(SCCCCn2cnc3ccccc32)cc1 [Compound 7925515] was tested. Which activity at 0.313 µM did it give?
**A.** Its activity at 0.313 µM is 94.7%.

Same assay, conditions: Dose 0.625 µM; read-out: B. taurus mitochondrial complex I activity

**Q.** For Clc1ccccc1OCCCCn1cnc2ccccc21 [Compound 7925804], which activity at 0.625 µM is on record?
**A.** Its activity at 0.625 µM is 75.5%.

**Q.** With Clc1ccc(SCCCCn2cnc3ccccc32)cc1 [Compound 7925515] as the compound, how does the activity at 0.625 µM read?
**A.** The activity at 0.625 µM was 97.6%.

Same assay, conditions: Dose 1.5 µM; read-out: B. taurus mitochondrial complex I activity

**Q.** Which activity at 1.5 µM does the source give for Clc1ccccc1OCCCCn1cnc2ccccc21 [Compound 7925804] here?
**A.** Its activity at 1.5 µM is 54.8%.

**Q.** For Clc1ccc(SCCCCn2cnc3ccccc32)cc1 [Compound 7925515], which activity at 1.5 µM is on record?
**A.** Its activity at 1.5 µM is 86.3%.

Same assay, conditions: Dose 3 µM; read-out: B. taurus mitochondrial complex I activity

**Q.** For Clc1ccccc1OCCCCn1cnc2ccccc21 [Compound 7925804], which activity at 3 µM is on record?
**A.** Its activity at 3 µM is 39.2%.

**Q.** With Clc1ccc(SCCCCn2cnc3ccccc32)cc1 [Compound 7925515] as the compound, how does the activity at 3 µM read?
**A.** The activity at 3 µM was 74.8%.

Same assay, conditions: Dose 15 µM; read-out: B. taurus mitochondrial complex I activity

**Q.** How did the activity at 15 µM turn out when Clc1ccccc1OCCCCn1cnc2ccccc21 [Compound 7925804] was run?
**A.** The activity at 15 µM was 9.9%.

**Q.** With Clc1ccc(SCCCCn2cnc3ccccc32)cc1 [Compound 7925515] as the compound, how does the activity at 15 µM read?
**A.** The activity at 15 µM was 26.8%.

Same assay, conditions: Dose 37.5 µM; read-out: B. taurus mitochondrial complex I activity

**Q.** Which activity at 37.5 µM does the source give for Clc1ccccc1OCCCCn1cnc2ccccc21 [Compound 7925804] here?
**A.** The activity at 37.5 µM was 3.53%.

**Q.** How did the activity at 37.5 µM turn out when Clc1ccc(SCCCCn2cnc3ccccc32)cc1 [Compound 7925515] was run?
**A.** Its activity at 37.5 µM is 5.44%.

Same assay, conditions: Dose 75 µM; read-out: B. taurus mitochondrial complex I activity

**Q.** Which activity at 75 µM does the source give for Clc1ccccc1OCCCCn1cnc2ccccc21 [Compound 7925804] here?
**A.** The activity at 75 µM was 2.37%.

**Q.** Which activity at 75 µM does the source give for Clc1ccc(SCCCCn2cnc3ccccc32)cc1 [Compound 7925515] here?
**A.** Its activity at 75 µM is 2.46%.

Same assay, conditions: log10 of IC50 in µM; B. taurus mitochondria

**Q.** How did the “Log IC50 B. taurus complex I” value turn out when Clc1ccccc1OCCCCn1cnc2ccccc21 [Compound 7925804] was run?
**A.** Its value is 0.13 µM.

**Q.** Which “Log IC50 B. taurus complex I” value does the source give for Cc1ccc(Cn2c(C)nc3ccccc32)cc1 [Compound 5651984] here?
**A.** Its value is -0.00436 µM.

**Q.** With Clc1ccc(SCCCCn2cnc3ccccc32)cc1 [Compound 7925515] as the compound, how does the “Log IC50 B. taurus complex I” value read?
**A.** Its value is 0.90 µM.
